From patent publication US11207310B2 (PRILENIA NEUROTHERAPEUTICS LTD., priority 2016, dated 2021)
Where two headings read alike, the source gives them in different places.

System: patients with HD
From the text: The mPPT quantifies the patient's performance in physical tasks (Brown 2000). It is a standardized 9-item test (standing static balance, chair rise, lift a book and put it on a shelf, put on and remove a jacket, pick up a penny from floor, turn 360 degrees, 50 feet walk, climb one flight of stairs, climb stairs test (flights up and down)), that measures the patient's performance on functional tasks. Both the speed and accuracy at which the patients complete the items are taken into account during scoring. The maximum score of the test is 36, with higher scores indicating better performance. The Multiple Sclerosis Walking Scale (MSWS-12) was adapted to become a generic measure of walking and mobility and renamed the Walk-12.
The secondary efficacy variable and endpoint, the Modified Physical Performance Test (mPPT), quantifies the patient's performance in physical tasks (Brown 2000). It is a standardized 9-item test that measures the patient's performance on functional tasks. Assistive devices are permitted for the tasks that require a standing position (items 6 to 9). Both the speed and accuracy at which the patients complete the items were taken into account during scoring. The maximum score of the test is 36, with higher scores indicating better performance.

[1] = 45 mg bid, HD1 and HD2 patients, 52 weeks
[2] = 45 mg bid, full analysis set, 26 weeks
[3] = 45 mg bid, full analysis set, 52 weeks
[4] = 45 mg bid, late stage HD patients with BL TFC<7, 52 weeks
[5] = 67.5 mg bid, HD1 and HD2 patients, 52 weeks
[6] = 67.5 mg bid, full analysis set, 26 weeks
[7] = 67.5 mg bid, full analysis set, 52 weeks
[8] = 67.5 mg bid, late stage HD patients with BL TFC<7, 52 weeks
[9] = 90 mg bid, HD1 and HD2 patients, 52 weeks
[10] = 90 mg bid, full analysis set, 26 weeks
[11] = 90 mg bid, full analysis set, 52 weeks
[12] = 90 mg bid, late stage HD patients with BL TFC<7, 52 weeks
[13] = 112.5 mg bid, HD1 and HD2 patients, 52 weeks
[14] = 112.5 mg bid, full analysis set, 26 weeks
[15] = 112.5 mg bid, full analysis set, 52 weeks
[16] = 112.5 mg bid, late stage HD patients with BL TFC<7, 52 weeks

For `CCCN1CCC(c2cccc(S(C)(=O)=O)c2)CC1` [pridopidine, 4-[3-(methylsulfonyl)phenyl]-1-propyl-piperidine], the “Change from baseline in mPPT Climb One Flight of Stairs scores, Δ to placebo” value (“Change … of Stairs scores, Δ to placebo” below) [1] was 0.27, the “Change from baseline in mPPT Climb Stairs (Flights Up and Down) scores, Δ to placebo” value [1] was −0.01 and the “Change … of Stairs scores, Δ to placebo” value (45 mg bid, HD1 patients, 52 weeks) was −0.02. The “Change … of Stairs scores, Δ to placebo” value (45 mg bid, HD2 patients, 52 weeks) was 0.35, the “Change from baseline in mPPT Climb Stairs (Flights Up and Down) scores, Δ to placebo” value [2] was −0.03 and the “Δ to placebo: mPPT 50 Feet Walk scores, change from baseline” value [2] was −0.02. For the same compound, the “Δ to placebo: mPPT Chair Rise scores” value [2] was 0.05, the “Δ to placebo: mPPT Climb One Flight of Stairs scores, change from baseline” value [2] was 0.08 and the “Δ to placebo: mPPT Lift a Book and Put it on the Shelf scores, change from baseline” value [2] was 0.14. For the same compound, the “Δ to placebo: mPPT Pick up a Penny from the Floor scores, change from baseline” value [2] was −0.13, the “Δ to placebo: mPPT Put on and Remove a Jacket scores, change from baseline” value (shortened to “Δ to placebo: mPPT Put … change from baseline”) [2] was −0.22 and the “Δ to placebo: mPPT Turn 360 Degrees scores, change from baseline” value [2] was 0.12. For the same compound, the “Δ to placebo: mPPT standing static balance scores” value [2] was 0.07, the “Change from baseline in mPPT Climb Stairs (Flights Up and Down) scores, Δ to placebo” value [3] was 0.17 and the “Δ to placebo: mPPT 50 Feet Walk scores, change from baseline” value [3] was −0.03. For the same compound, the “Δ to placebo: mPPT Chair Rise scores” value [3] was −0.05, the “Δ to placebo: mPPT Climb One Flight of Stairs scores, change from baseline” value [3] was 0.26 and the “Δ to placebo: mPPT Lift a Book and Put it on the Shelf scores, change from baseline” value [3] was 0.25. The “Δ to placebo: mPPT Pick up a Penny from the Floor scores, change from baseline” value [3] was 0.04, the “Δ to placebo: mPPT Put … change from baseline” value [3] was 0.2 and the “Δ to placebo: mPPT Turn 360 Degrees scores, change from baseline” value [3] was −0.12. The “Δ to placebo: mPPT standing static balance scores” value [3] was −0.15, the “Change … of Stairs scores, Δ to placebo” value (45 mg bid, late stage HD patients with BL TFC 0-6, 52 weeks) was 0.19 and the “Change from baseline in mPPT Climb Stairs (Flights Up and Down) scores, Δ to placebo” value [4] was 0.72. For the same compound, the “Δ to placebo: mPPT Climb One Flight of Stairs scores, change from baseline” value [4] was 0.19, the “Change … of Stairs scores, Δ to placebo” value [5] was 0.3 and the “Change from baseline in mPPT Climb Stairs (Flights Up and Down) scores, Δ to placebo” value [5] was 0.01. For the same compound, the “Change … of Stairs scores, Δ to placebo” value (67.5 mg bid, HD1 patients, 52 weeks) was 0.01, the “Change … of Stairs scores, Δ to placebo” value (67.5 mg bid, HD2 patients, 52 weeks) was 0.34 and the “Change from baseline in mPPT Climb Stairs (Flights Up and Down) scores, Δ to placebo” value [6] was −0.14. For the same compound, the “Δ to placebo: mPPT 50 Feet Walk scores, change from baseline” value [6] was 0, the “Δ to placebo: mPPT Chair Rise scores” value [6] was 0.01 and the “Δ to placebo: mPPT Climb One Flight of Stairs scores, change from baseline” value [6] was 0.11. For the same compound, the “Δ to placebo: mPPT Lift a Book and Put it on the Shelf scores, change from baseline” value [6] was 0.1, the “Δ to placebo: mPPT Pick up a Penny from the Floor scores, change from baseline” value [6] was 0.14 and the “Δ to placebo: mPPT Put … change from baseline” value [6] was 0.17. The “Δ to placebo: mPPT Turn 360 Degrees scores, change from baseline” value [6] was −0.06, the “Δ to placebo: mPPT standing static balance scores” value [6] was −0.2 and the “Change from baseline in mPPT Climb Stairs (Flights Up and Down) scores, Δ to placebo” value [7] was 0.04. The “Δ to placebo: mPPT 50 Feet Walk scores, change from baseline” value [7] was 0.15, the “Δ to placebo: mPPT Chair Rise scores” value [7] was −0.1 and the “Δ to placebo: mPPT Climb One Flight of Stairs scores, change from baseline” value [7] was 0.13. The “Δ to placebo: mPPT Lift a Book and Put it on the Shelf scores, change from baseline” value [7] was 0.17, the “Δ to placebo: mPPT Pick up a Penny from the Floor scores, change from baseline” value [7] was 0.09 and the “Δ to placebo: mPPT Put … change from baseline” value [7] was 0.21. For the same compound, the “Δ to placebo: mPPT Turn 360 Degrees scores, change from baseline” value [7] was −0.1, the “Δ to placebo: mPPT standing static balance scores” value [7] was −0.19 and the “Change … of Stairs scores, Δ to placebo” value (67.5 mg bid, late stage HD patients with BL TFC 0-6, 52 weeks) was −0.3. The “Change from baseline in mPPT Climb Stairs (Flights Up and Down) scores, Δ to placebo” value [8] was 0.16, the “Δ to placebo: mPPT Climb One Flight of Stairs scores, change from baseline” value [8] was −0.3 and the “Change … of Stairs scores, Δ to placebo” value [9] was 0.22. The “Change from baseline in mPPT Climb Stairs (Flights Up and Down) scores, Δ to placebo” value [9] was 0.1, the “Change … of Stairs scores, Δ to placebo” value (90 mg bid, HD1 patients, 52 weeks) was −0.06 and the “Change … of Stairs scores, Δ to placebo” value (90 mg bid, HD2 patients, 52 weeks) was 0.28. For the same compound, the “Change from baseline in mPPT Climb Stairs (Flights Up and Down) scores, Δ to placebo” value [10] was −0.08, the “Δ to placebo: mPPT 50 Feet Walk scores, change from baseline” value [10] was −0.1 and the “Δ to placebo: mPPT Chair Rise scores” value [10] was 0.01. For the same compound, the “Δ to placebo: mPPT Climb One Flight of Stairs scores, change from baseline” value [10] was 0.15, the “Δ to placebo: mPPT Lift a Book and Put it on the Shelf scores, change from baseline” value [10] was 0.04 and the “Δ to placebo: mPPT Pick up a Penny from the Floor scores, change from baseline” value [10] was 0.1. For the same compound, the “Δ to placebo: mPPT Put … change from baseline” value [10] was −0.01, the “Δ to placebo: mPPT Turn 360 Degrees scores, change from baseline” value [10] was 0.12 and the “Δ to placebo: mPPT standing static balance scores” value [10] was −0.1. The “Change from baseline in mPPT Climb Stairs (Flights Up and Down) scores, Δ to placebo” value [11] was −0.04, the “Δ to placebo: mPPT 50 Feet Walk scores, change from baseline” value [11] was −0.23 and the “Δ to placebo: mPPT Chair Rise scores” value [11] was −0.31. The “Δ to placebo: mPPT Climb One Flight of Stairs scores, change from baseline” value [11] was 0.08, the “Δ to placebo: mPPT Lift a Book and Put it on the Shelf scores, change from baseline” value [11] was 0.22 and the “Δ to placebo: mPPT Pick up a Penny from the Floor scores, change from baseline” value [11] was 0.14. The “Δ to placebo: mPPT Put … change from baseline” value [11] was 0.08, the “Δ to placebo: mPPT Turn 360 Degrees scores, change from baseline” value [11] was 0.04 and the “Δ to placebo: mPPT standing static balance scores” value [11] was −0.14. For the same compound, the “Change … of Stairs scores, Δ to placebo” value (90 mg bid, late stage HD patients with BL TFC 0-6, 52 weeks) was −0.26, the “Change from baseline in mPPT Climb Stairs (Flights Up and Down) scores, Δ to placebo” value [12] was −0.36 and the “Δ to placebo: mPPT Climb One Flight of Stairs scores, change from baseline” value [12] was −0.26. For the same compound, the “Change … of Stairs scores, Δ to placebo” value [13] was 0.23, the “Change from baseline in mPPT Climb Stairs (Flights Up and Down) scores, Δ to placebo” value [13] was 0.07 and the “Change … of Stairs scores, Δ to placebo” value (112.5 mg bid, HD1 patients, 52 weeks) was 0.18. The “Change … of Stairs scores, Δ to placebo” value (112.5 mg bid, HD2 patients, 52 weeks) was 0.23, the “Change from baseline in mPPT Climb Stairs (Flights Up and Down) scores, Δ to placebo” value [14] was −0.08 and the “Δ to placebo: mPPT 50 Feet Walk scores, change from baseline” value [14] was −0.17. The “Δ to placebo: mPPT Chair Rise scores” value [14] was 0.12, the “Δ to placebo: mPPT Climb One Flight of Stairs scores, change from baseline” value [14] was 0.16 and the “Δ to placebo: mPPT Lift a Book and Put it on the Shelf scores, change from baseline” value [14] was 0.14. The “Δ to placebo: mPPT Pick up a Penny from the Floor scores, change from baseline” value [14] was 0.07, the “Δ to placebo: mPPT Put … change from baseline” value [14] was −0.03 and the “Δ to placebo: mPPT Turn 360 Degrees scores, change from baseline” value [14] was 0.2. For the same compound, the “Δ to placebo: mPPT standing static balance scores” value [14] was 0.05, the “Change from baseline in mPPT Climb Stairs (Flights Up and Down) scores, Δ to placebo” value [15] was 0.1 and the “Δ to placebo: mPPT 50 Feet Walk scores, change from baseline” value [15] was −0.15. The “Δ to placebo: mPPT Chair Rise scores” value [15] was −0.12, the “Δ to placebo: mPPT Climb One Flight of Stairs scores, change from baseline” value [15] was 0.11 and the “Δ to placebo: mPPT Lift a Book and Put it on the Shelf scores, change from baseline” value [15] was 0.12. For the same compound, the “Δ to placebo: mPPT Pick up a Penny from the Floor scores, change from baseline” value [15] was 0.07, the “Δ to placebo: mPPT Put … change from baseline” value [15] was −0.18 and the “Δ to placebo: mPPT Turn 360 Degrees scores, change from baseline” value [15] was −0.08. The “Δ to placebo: mPPT standing static balance scores” value [15] was −0.12, the “Change … of Stairs scores, Δ to placebo” value (112.5 mg bid, late stage HD patients with BL TFC 0-6, 52 weeks) was −0.15 and the “Change from baseline in mPPT Climb Stairs (Flights Up and Down) scores, Δ to placebo” value [16] was 0.31. For the same compound, the “Δ to placebo: mPPT Climb One Flight of Stairs scores, change from baseline” value [16] was −0.15.
